According to ChEMBL document CHEMBL1201862, “PubChem BioAssay data set” (2004):
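Five concentrations, 48 hours, 96-well plates. GI50 = concentration required for 50% inhibition of growth.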 Active and inactive are the calls of the source. Cut-off read from the data, not from the text of the source: active = GI50 up to about 1.1 µM and inactive = higher.

Tests used:
Test in all cases: growth of human tumour cells (NCI), 48 h
MDA-N = system: MDA-N
RXF 393 = system: RXF 393
HCT-116 = system: HCT-116
A549 = system: A549
BT-549 = system: BT-549
SF-268 = system: SF-268
Malme-3M = system: Malme-3M
UO-31 = system: UO-31
HT-29 = system: HT-29
UACC-257 = system: UACC-257
CAKI-1 = system: CAKI-1
HOP-62 = system: HOP-62
TK-10 = system: TK-10
OVCAR-5 = system: OVCAR-5
MOLT-4 = system: MOLT-4
NCI-H226 = system: NCI-H226
HCT-15 = system: HCT-15
SF-539 = system: SF-539
786-0 = system: 786-0
NCI/ADR-RES = system: NCI/ADR-RES

Structure (SMILES) | GI50 (MDA-N) | GI50 (RXF 393) | GI50 (HCT-116) | GI50 (A549) | GI50 (BT-549) | GI50 (SF-268) | GI50 (Malme-3M) | GI50 (UO-31) | GI50 (HT-29) | GI50 (UACC-257) | GI50 (CAKI-1) | GI50 (HOP-62) | GI50 (TK-10) | GI50 (OVCAR-5) | GI50 (MOLT-4) | GI50 (NCI-H226) | GI50 (HCT-15) | GI50 (SF-539) | GI50 (786-0) | GI50 (NCI/ADR-RES)
CCOC(=O)NC(NCC(O)c1ccccc1)(C(F)(F)F)C(F)(F)F (centres undefined) | > 100 µM (inactive) | 43.4 µM (inactive) | > 100 µM (inactive) | > 100 µM (inactive) | > 100 µM (inactive) | > 100 µM (inactive) | > 100 µM (inactive) | > 100 µM (inactive) | > 100 µM (inactive) | > 100 µM (inactive) | > 100 µM (inactive) | > 100 µM (inactive) | > 100 µM (inactive) | > 100 µM (inactive) | > 100 µM (inactive) | > 100 µM (inactive) | > 100 µM | > 100 µM (inactive) | – | –
Oc1c(/N=N/c2ccccc2)c2ccccc2c2ccc3ccccc3c12 | – | 56.1 µM (inactive) | > 100 µM (inactive) | 43.2 µM (inactive) | 73.8 µM (inactive) | > 100 µM (inactive) | 48.3 µM (inactive) | > 100 µM (inactive) | > 100 µM (inactive) | > 100 µM (inactive) | 48.6 µM (inactive) | 43.6 µM (inactive) | > 100 µM (inactive) | > 100 µM (inactive) | 40.6 µM (inactive) | > 100 µM (inactive) | > 100 µM | 34.5 µM (inactive) | 44.6 µM (inactive) | > 100 µM (inactive)
C#CCNC(CSSCC(N)C(=O)O)C(=O)O (centres undefined) | > 100 µM (inactive) | > 100 µM (inactive) | > 100 µM (inactive) | > 100 µM (inactive) | – | > 100 µM (inactive) | > 100 µM (inactive) | > 100 µM (inactive) | > 100 µM (inactive) | > 100 µM (inactive) | > 100 µM (inactive) | > 100 µM (inactive) | > 100 µM (inactive) | > 100 µM (inactive) | > 100 µM (inactive) | > 100 µM (inactive) | > 100 µM | > 100 µM (inactive) | > 100 µM (inactive) | > 100 µM (inactive)
CC(=O)Nc1ccc2c3c(cc(O)c2c1)N(C(=O)CCCC(=O)N1CC(CCl)c2c1cc(O)c1cc(NC(C)=O)ccc21)CC3CCl (centres undefined) | – | < 0.01 µM (active) | < 0.01 µM (active) | < 0.01 µM (active) | 0.011 µM (active) | < 0.01 µM (active) | 0.01 µM (active) | < 0.0166 µM (active) | 0.0125 µM (active) | 0.0114 µM (active) | < 0.01 µM (active) | < 0.01 µM (active) | 0.022 µM (active) | 0.0198 µM (active) | < 0.01 µM (active) | < 0.01 µM (active) | 0.0773 µM | 0.0223 µM (active) | < 0.01 µM (active) | 0.0828 µM (active)
N#C/C(N)=C(C#N)/N=C/N | > 100 µM (inactive) | – | > 100 µM (inactive) | > 100 µM (inactive) | – | > 100 µM (inactive) | > 100 µM (inactive) | 58.6 µM (inactive) | > 100 µM (inactive) | > 100 µM (inactive) | – | > 100 µM (inactive) | > 100 µM (inactive) | > 100 µM (inactive) | > 100 µM (inactive) | – | > 100 µM | > 100 µM (inactive) | > 100 µM (inactive) | > 100 µM (inactive)
COC(=O)/C=C/c1cc2c(cc1-c1c(C(=O)O)cc(OC)c(OC)c1OC)OCO2 | > 10 µM (inactive) | – | > 10 µM (inactive) | > 10 µM (inactive) | > 10 µM (inactive) | > 10 µM (inactive) | > 10 µM (inactive) | – | > 10 µM (inactive) | > 10 µM (inactive) | > 10 µM (inactive) | > 10 µM (inactive) | > 10 µM (inactive) | – | > 10 µM (inactive) | – | > 10 µM | > 10 µM (inactive) | > 10 µM (inactive) | > 10 µM (inactive)
C[Si](C)(C)CNC(=O)OCc1ccccc1 | > 100 µM (inactive) | – | > 100 µM (inactive) | > 100 µM (inactive) | 98.9 µM (inactive) | > 100 µM (inactive) | – | > 100 µM (inactive) | 48 µM (inactive) | > 100 µM (inactive) | > 100 µM (inactive) | 58.1 µM (inactive) | > 100 µM (inactive) | > 100 µM (inactive) | – | 66.4 µM (inactive) | > 100 µM | > 100 µM (inactive) | > 100 µM (inactive) | 75 µM (inactive)
Clc1cccc(Cl)c1C1ON=C(c2ccccc2)N1C12CC3CC(CC(C3)C1)C2 (centres undefined) | 37.6 µM (inactive) | 39.1 µM (inactive) | 10.9 µM (inactive) | 25.2 µM (inactive) | – | 82 µM (inactive) | 14.8 µM (inactive) | 58.5 µM (inactive) | 29.1 µM (inactive) | 3.29 µM (inactive) | 40.9 µM (inactive) | 31.6 µM (inactive) | 63.7 µM (inactive) | > 100 µM (inactive) | 7.31 µM (inactive) | 43.3 µM (inactive) | 9.75 µM | 66.1 µM (inactive) | 32.4 µM (inactive) | 15.2 µM (inactive)
CSC1=N/C(=C\c2ccc(C)cc2)C(=O)N1CN1CCOCC1 | > 100 µM (inactive) | – | 35.7 µM (inactive) | 92.3 µM (inactive) | – | 47.6 µM (inactive) | > 100 µM (inactive) | 20.2 µM (inactive) | – | – | – | 89.1 µM (inactive) | > 100 µM (inactive) | > 100 µM (inactive) | 28.9 µM (inactive) | 31.3 µM (inactive) | 34.1 µM | – | 44.7 µM (inactive) | 19.5 µM (inactive)
C[C@H](NC(=O)OC1C2C=CC(O)C1CC2)c1ccccc1 (some centres undefined) | – | > 100 µM (inactive) | > 100 µM (inactive) | > 100 µM (inactive) | – | > 100 µM (inactive) | > 100 µM (inactive) | > 100 µM (inactive) | > 10 µM (inactive) | > 100 µM (inactive) | > 100 µM (inactive) | > 100 µM (inactive) | > 100 µM (inactive) | > 100 µM (inactive) | > 100 µM (inactive) | > 100 µM (inactive) | 13.1 µM | > 100 µM (inactive) | 38.1 µM (inactive) | –
CC(=O)O[C@H]1CCn2c3c(c(C)c21)C(=O)C(N1CC1)=C(C)C3=O | > 10 µM (inactive) | – | > 10 µM (inactive) | 3.19 µM (inactive) | > 10 µM (inactive) | > 10 µM (inactive) | > 10 µM (inactive) | – | 2.84 µM (inactive) | > 10 µM (inactive) | > 10 µM (inactive) | 5.2 µM (inactive) | > 10 µM (inactive) | > 10 µM (inactive) | > 10 µM (inactive) | > 10 µM (inactive) | > 10 µM | > 10 µM (inactive) | > 10 µM (inactive) | > 10 µM (inactive)
CCc1ccccc1NC(=O)/C=C/c1ccccc1 | > 100 µM (inactive) | – | > 100 µM (inactive) | > 100 µM (inactive) | > 100 µM (inactive) | > 100 µM (inactive) | > 100 µM (inactive) | – | > 100 µM (inactive) | > 100 µM (inactive) | > 100 µM (inactive) | 49 µM (inactive) | > 100 µM (inactive) | > 100 µM (inactive) | > 100 µM (inactive) | > 100 µM (inactive) | > 100 µM | > 100 µM (inactive) | > 100 µM (inactive) | –
O=NN(CCCl)C(=O)N[C@H]1CC[C@@H](CC(=O)O)CC1 | – | > 100 µM (inactive) | > 100 µM (inactive) | > 100 µM (inactive) | – | 33 µM (inactive) | > 100 µM (inactive) | > 100 µM (inactive) | > 100 µM (inactive) | > 100 µM (inactive) | > 100 µM (inactive) | > 100 µM (inactive) | – | > 100 µM (inactive) | 44 µM (inactive) | > 100 µM (inactive) | > 100 µM | 45.7 µM (inactive) | – | > 100 µM (inactive)
COc1ccc(C2S/C(=C\c3ccc(O)cc3)C(=O)N2NC(=O)Cc2ccccc2)cc1 (centres undefined) | – | > 100 µM (inactive) | > 100 µM (inactive) | > 100 µM (inactive) | – | > 100 µM (inactive) | > 100 µM (inactive) | > 100 µM (inactive) | > 100 µM (inactive) | > 100 µM (inactive) | > 100 µM (inactive) | > 100 µM (inactive) | > 100 µM (inactive) | > 100 µM (inactive) | > 100 µM (inactive) | > 100 µM (inactive) | > 100 µM | > 100 µM (inactive) | > 100 µM (inactive) | –
CCOC(=O)c1csc(NC(=O)CCN2CCOCC2)n1 | 59.7 µM (inactive) | 75.5 µM (inactive) | – | > 100 µM (inactive) | – | – | 19.3 µM (inactive) | 78.5 µM (inactive) | 36.5 µM (inactive) | 92.9 µM (inactive) | 32 µM (inactive) | > 100 µM (inactive) | 39.9 µM (inactive) | > 100 µM (inactive) | 25.9 µM (inactive) | – | 49.7 µM | > 100 µM (inactive) | – | 48.5 µM (inactive)
O=C(c1ccccc1)c1ccc2cccc(OC3OC(CO)C(O)C(O)C3O)c2n1 (centres undefined) | – | > 100 µM (inactive) | > 100 µM (inactive) | > 100 µM (inactive) | – | > 100 µM (inactive) | > 100 µM (inactive) | > 100 µM (inactive) | > 100 µM (inactive) | 54.7 µM (inactive) | > 100 µM (inactive) | > 100 µM (inactive) | > 100 µM (inactive) | > 100 µM (inactive) | > 100 µM (inactive) | > 100 µM (inactive) | > 100 µM | > 100 µM (inactive) | > 100 µM (inactive) | –
